Measured values: publication PMC9403976, “Elucidating the path to Plasmodium prolyl-tRNA synthetase inhibitors that overcome halofuginone resistance” (Nature Communications, 2022)
Values joined by “and” are separate entries in the source; they are usually repeats but may differ in a detail not shown here. Equal entries are not always repeated. Where two headings read alike, the source gives them in different places.

Key:
[1] = molecular target: T1, PfcProRS (Plasmodium falciparum, UniProt Q8I5R7); format: binding; settings: for dose-response signal (normalized), SI Fig 8: single replicates
T1 construct: made in house; host or cells: E. coli SoluBL-21

[2] = molecular target: HsProRS (Homo sapiens, UniProt P07814); assay: TR-FRET ligand displacement assay with tracer MAT379 (CoraFluor-1-Halo and anti-His6 antibody formats); format: binding; design: made in house; host or cells: E. coli SoluBL-21; settings: for Kd: 250 nM MAT379; for TR-FRET dose-response, normalized signal (SI Fig 11): individual replicates
Chain of HsProRS (P07814 996-1512): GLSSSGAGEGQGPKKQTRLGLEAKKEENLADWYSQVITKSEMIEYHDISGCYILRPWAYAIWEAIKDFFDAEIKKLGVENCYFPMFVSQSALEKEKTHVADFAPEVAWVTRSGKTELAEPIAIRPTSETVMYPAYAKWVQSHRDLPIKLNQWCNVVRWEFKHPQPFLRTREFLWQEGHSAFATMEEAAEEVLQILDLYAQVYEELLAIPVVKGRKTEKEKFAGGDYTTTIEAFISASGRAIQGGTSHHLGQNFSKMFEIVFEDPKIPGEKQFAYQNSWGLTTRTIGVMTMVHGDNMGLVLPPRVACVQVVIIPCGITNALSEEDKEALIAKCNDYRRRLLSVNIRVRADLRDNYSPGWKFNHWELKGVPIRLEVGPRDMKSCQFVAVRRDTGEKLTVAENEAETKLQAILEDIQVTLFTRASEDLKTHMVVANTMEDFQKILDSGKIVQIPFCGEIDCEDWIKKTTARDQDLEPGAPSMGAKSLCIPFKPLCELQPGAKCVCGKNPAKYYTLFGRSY

T1 sequence (Q8I5R7 249-746): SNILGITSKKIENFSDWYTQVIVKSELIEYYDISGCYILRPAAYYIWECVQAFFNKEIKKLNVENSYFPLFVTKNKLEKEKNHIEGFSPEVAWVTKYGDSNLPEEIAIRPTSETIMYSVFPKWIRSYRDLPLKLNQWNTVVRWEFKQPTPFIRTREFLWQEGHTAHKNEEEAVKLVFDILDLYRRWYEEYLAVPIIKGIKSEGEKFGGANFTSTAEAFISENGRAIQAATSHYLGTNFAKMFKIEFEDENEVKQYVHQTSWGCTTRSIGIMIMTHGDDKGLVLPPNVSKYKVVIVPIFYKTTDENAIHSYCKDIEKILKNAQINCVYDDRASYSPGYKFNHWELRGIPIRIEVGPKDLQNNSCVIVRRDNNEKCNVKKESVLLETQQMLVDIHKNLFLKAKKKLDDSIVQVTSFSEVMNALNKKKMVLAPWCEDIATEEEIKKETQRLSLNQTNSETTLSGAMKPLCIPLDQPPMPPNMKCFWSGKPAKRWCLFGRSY

## CC(C)(C)OC(=O)N[C@H]1CC[C@@H](C(=O)Nc2nccnc2C(=O)NC2Cc3ccccc3C2)CC1 [compound 6]
[1]; Log[inhibitor] (M) -8.000
  dose-response signal (normalized), SI Fig 8: 8.78E-01 and 9.57E-01 and 8.94E-01
[1]; Log[inhibitor] (M) -8.301
  dose-response signal (normalized), SI Fig 8: 1.00E+00 and 9.97E-01 and 9.67E-01
[1]; Log[inhibitor] (M) -8.602
  dose-response signal (normalized), SI Fig 8: 1.06E+00 and 9.31E-01 and 1.01E+00
[1]; Log[inhibitor] (M) -9.000
  dose-response signal (normalized), SI Fig 8: 9.58E-01 and 9.81E-01 and 9.50E-01
[1]; Log[inhibitor] (M) -9.301
  dose-response signal (normalized), SI Fig 8: 1.01E+00 and 1.02E+00 and 9.51E-01
[1]; SI Fig 16a, values on -log scale
  PfcProRS -- best Kd: 7.580
[2]; HsProRS (KD [nM]) + proline, 100 μM proline
  Kd: 82.7 nM
[2]; HsProRS (KD [nM]) −, absence of substrates
  Kd: 56.8 nM
[2]; Log[inhibitor] (M) -5.000
  normalized TR-FRET ligand displacement signal, dose-response replicates (SI Fig 6): -9.02E-03 and -3.85E-02 and -4.81E-02
  TR-FRET dose-response, normalized signal (SI Fig 11): -2.98E-03 and 2.00E-02 and -3.48E-02
[2]; Log[inhibitor] (M) -5.301
  normalized TR-FRET ligand displacement signal, dose-response replicates (SI Fig 6): 1.39E-03 and -1.19E-02 and 6.50E-02
  TR-FRET dose-response, normalized signal (SI Fig 11): -9.84E-03 and -1.64E-02 and -3.17E-02
[2]; Log[inhibitor] (M) -5.601
  normalized TR-FRET ligand displacement signal, dose-response replicates (SI Fig 6): 3.06E-03 and 6.60E-02 and -6.88E-02
  TR-FRET dose-response, normalized signal (SI Fig 11): 1.87E-02 and 1.41E-03 and 1.94E-02
[2]; Log[inhibitor] (M) -5.904
  normalized TR-FRET ligand displacement signal, dose-response replicates (SI Fig 6): 1.31E-01 and 8.92E-02 and 1.65E-02
  TR-FRET dose-response, normalized signal (SI Fig 11): 4.76E-02 and 6.37E-02 and 6.71E-02
[2]; Log[inhibitor] (M) -6.208
  normalized TR-FRET ligand displacement signal, dose-response replicates (SI Fig 6): 8.21E-02 and 1.14E-01 and 9.74E-02
  TR-FRET dose-response, normalized signal (SI Fig 11): 1.11E-01 and 9.52E-02 and 8.68E-02
[2]; Log[inhibitor] (M) -6.509
  normalized TR-FRET ligand displacement signal, dose-response replicates (SI Fig 6): 3.32E-01 and 2.13E-01 and 2.09E-01
  TR-FRET dose-response, normalized signal (SI Fig 11): 1.70E-01 and 1.88E-01 and 1.94E-01
[2]; Log[inhibitor] (M) -6.796
  normalized TR-FRET ligand displacement signal, dose-response replicates (SI Fig 6): 3.90E-01 and 3.58E-01 and 4.40E-01
  TR-FRET dose-response, normalized signal (SI Fig 11): 3.16E-01 and 2.94E-01 and 3.43E-01
[2]; Log[inhibitor] (M) -7.108
  normalized TR-FRET ligand displacement signal, dose-response replicates (SI Fig 6): 6.29E-01 and 5.81E-01 and 6.23E-01
  TR-FRET dose-response, normalized signal (SI Fig 11): 5.24E-01 and 5.07E-01 and 4.16E-01
[2]; Log[inhibitor] (M) -7.409
  normalized TR-FRET ligand displacement signal, dose-response replicates (SI Fig 6): 7.27E-01 and 7.69E-01 and 8.30E-01
  TR-FRET dose-response, normalized signal (SI Fig 11): 6.04E-01 and 6.96E-01 and 6.63E-01
[2]; Log[inhibitor] (M) -7.710
  normalized TR-FRET ligand displacement signal, dose-response replicates (SI Fig 6): 8.52E-01 and 7.93E-01 and 9.04E-01
  TR-FRET dose-response, normalized signal (SI Fig 11): 7.36E-01 and 7.44E-01 and 7.53E-01
[2]; Log[inhibitor] (M) -8.000
  normalized TR-FRET ligand displacement signal, dose-response replicates (SI Fig 6): 8.26E-01 and 9.38E-01 and 9.73E-01
  TR-FRET dose-response, normalized signal (SI Fig 11): 8.98E-01 and 8.12E-01 and 7.76E-01
[2]; Log[inhibitor] (M) -8.301
  normalized TR-FRET ligand displacement signal, dose-response replicates (SI Fig 6): 9.79E-01 and 9.47E-01 and 1.01E+00
  TR-FRET dose-response, normalized signal (SI Fig 11): 8.89E-01 and 8.40E-01 and 9.15E-01
[2]; Log[inhibitor] (M) -8.602
  normalized TR-FRET ligand displacement signal, dose-response replicates (SI Fig 6): 9.42E-01 and 9.96E-01 and 9.03E-01
  TR-FRET dose-response, normalized signal (SI Fig 11): 9.56E-01 and 8.65E-01 and 9.25E-01
[2]; Log[inhibitor] (M) -9.000
  normalized TR-FRET ligand displacement signal, dose-response replicates (SI Fig 6): 9.97E-01 and 9.50E-01 and 8.98E-01
  TR-FRET dose-response, normalized signal (SI Fig 11): 9.29E-01 and 9.09E-01 and 9.22E-01
[2]; Log[inhibitor] (M) -9.301
  normalized TR-FRET ligand displacement signal, dose-response replicates (SI Fig 6): 1.05E+00 and 9.90E-01 and 1.06E+00
  TR-FRET dose-response, normalized signal (SI Fig 11): 9.30E-01 and 9.49E-01 and 9.75E-01
